Results on nine compounds are retold here after PubChem BioAssay (NCI).

Some test systems named below: OVCAR-3 ovarian; SR leukemia; MCF7 breast; TK-10 renal; BT-549 breast; SW-620 colon; RXF 393 renal; SK-MEL-2 melanoma; U251 CNS; SN12C renal.
Common to all, as to experiment: DTP human tumour cell line panel, 48 h

Structures are written as SMILES.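 Exposure lasted 48 hours, with cells grown in 96-well plates and compounds tested at five concentrations. Here, GI50 denotes the concentration required for 50% inhibition of growth. TGI: concentration producing complete growth inhibition.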 Where only a bound is given, the exact number is not on record here.

On to `Cc1cc2nc(C(C)C(=O)c3ccc(Cl)cc3)c(=O)[nH]c2cc1C` (centres undefined), for which the TGI (as a rule, the concentration at which net growth stops) with OVCAR-3 ovarian is above 100 µM; in the assay on SR leukemia, 97.6 µM; in the assay on MCF7 breast, above 100 µM; with TK-10 renal it was 75.2 µM; with BT-549 breast, above 100 µM; with SW-620 colon it was above 100 µM. Further, the TGI with RXF 393 renal, in the assay on SK-MEL-2 melanoma, in the assay on U251 CNS and with SN12C renal was above 100 µM in each case.

On to `CCc1nc(N)nc(N)c1-c1ccc(NCCN)c([N+](=O)[O-])c1`, for which the TGI in the assay with OVCAR-3 ovarian is above 100 µM; with SR leukemia, above 55.8 µM; in the assay with MCF7 breast, above 78.3 µM; with TK-10 renal it was above 100 µM; in the assay on BT-549 breast, above 100 µM; with SW-620 colon it was above 100 µM. Besides, the TGI in the assay on RXF 393 renal, with SK-MEL-2 melanoma, in the assay on U251 CNS and with SN12C renal was above 100 µM throughout.

For `CC[C@]12CCCN3CCc4c(n(c5ccccc45)C(=O)C1)[C@@H]32`, the TGI in the assay on OVCAR-3 ovarian is 5.81 µM; in the assay on SR leukemia, 18 µM; with MCF7 breast, above 100 µM; in the assay with TK-10 renal, above 90 µM; with BT-549 breast, above 100 µM; in the assay with SW-620 colon, above 65 µM. The TGI in the assay with RXF 393 renal is 63.7 µM; in the assay with SK-MEL-2 melanoma, above 100 µM; with U251 CNS, above 52.2 µM; with SN12C renal, above 100 µM.

Take `COc1cc(C(=O)/C=C/c2c(C)n([O-])c3ccc(C)cc3[n+]2=O)cc(OC)c1OC`: the GI50 (as a rule, the concentration at which growth is held to half of that of the control) in the assay with OVCAR-3 ovarian is 3.11 µM; in the assay on SR leukemia, 2.15 µM; with MCF7 breast, 3.3 µM; in the assay on TK-10 renal, 3.77 µM; in the assay with BT-549 breast, 8.06 µM; with SW-620 colon, 1.53 µM. The GI50 is 1.89 µM with RXF 393 renal, 15 µM in the assay on SK-MEL-2 melanoma and 7.74 µM in the assay on U251 CNS. The TGI with OVCAR-3 ovarian is 7.1 µM; in the assay on SR leukemia, 7.42 µM; in the assay on MCF7 breast, 12.5 µM; in the assay with TK-10 renal, above 34.6 µM; in the assay with BT-549 breast, 33.2 µM; in the assay on SW-620 colon, 3.02 µM. Moreover, the TGI in the assay with RXF 393 renal turned out to be 3.91 µM; in the assay with SK-MEL-2 melanoma, 31.2 µM; in the assay on U251 CNS, 21 µM; with SN12C renal it was 35.7 µM.

Take `CCCCC[C@H](O)/C=C/[C@@H]1[C@@H](C/C=C\CCCC(=O)O)[C@@H](O)C[C@H]1O`: the GI50 in the assay with OVCAR-3 ovarian, in the assay on SR leukemia, in the assay on MCF7 breast, in the assay on TK-10 renal, in the assay on BT-549 breast and in the assay on SW-620 colon was above 100 µM in each case. Besides, the GI50 in the assay with RXF 393 renal, with SK-MEL-2 melanoma, in the assay with U251 CNS and in the assay on SN12C renal was above 100 µM throughout. For the same compound, the TGI in the assay on OVCAR-3 ovarian, in the assay with SR leukemia, in the assay with MCF7 breast, in the assay on TK-10 renal, in the assay with BT-549 breast and in the assay with SW-620 colon was above 100 µM in each case. For the same compound, the concentration for total growth inhibition (TGI) in the assay on RXF 393 renal, in the assay on SK-MEL-2 melanoma, in the assay with U251 CNS and in the assay with SN12C renal was above 100 µM in each case.

For the compound `C=CC[n+]1c(/C=C/C=C2\N(C)c3ccccc3C2(C)C)sc2ccc(OC)cc21`, the concentration for 50% growth inhibition (GI50) in the assay with OVCAR-3 ovarian is 0.176 µM; with SR leukemia, 0.101 µM; in the assay with MCF7 breast, 0.157 µM; with TK-10 renal it was 0.235 µM; in the assay with BT-549 breast, 0.149 µM; in the assay with SW-620 colon it was 0.34 µM. Moreover, the GI50 is 0.431 µM in the assay with RXF 393 renal, 0.27 µM with SK-MEL-2 melanoma, 0.293 µM with U251 CNS and 0.283 µM with SN12C renal. The TGI was determined as 22.2 µM in the assay with OVCAR-3 ovarian; 7.12 µM with SR leukemia; 11.4 µM with MCF7 breast; 14.8 µM in the assay on TK-10 renal; 2.99 µM with BT-549 breast; 14.3 µM in the assay on SW-620 colon. For the same compound, the TGI in the assay on RXF 393 renal is 13.7 µM; in the assay on SK-MEL-2 melanoma, 5.22 µM; in the assay with U251 CNS, 14.4 µM; in the assay with SN12C renal, 11.8 µM.

For `Cc1c(N2CCCC2)cc2c(c1NC(=O)c1ccccc1Cl)C(C)(C)CC2(C)C`, the TGI turned out to be 21.3 µM with OVCAR-3 ovarian; 38.1 µM in the assay on SR leukemia; 28.4 µM in the assay with MCF7 breast; 23.1 µM in the assay on TK-10 renal; 32 µM in the assay on BT-549 breast; 33.1 µM in the assay on SW-620 colon. The TGI with RXF 393 renal was 27.5 µM; with SK-MEL-2 melanoma, 30 µM; in the assay on U251 CNS, 27.6 µM; with SN12C renal, 33.2 µM.

For the compound `O=C(NC1CCN(Cc2ccccc2)CC1)c1cc(-c2ccncc2)nc2ccc(Cl)cc12`, the GI50 is 15.4 µM with OVCAR-3 ovarian; 6.82 µM with SR leukemia; 5.66 µM in the assay on MCF7 breast; 29.7 µM in the assay on TK-10 renal; 17.2 µM in the assay with BT-549 breast; 19.8 µM in the assay with SW-620 colon. Also, the GI50 with RXF 393 renal was 5.48 µM; with SK-MEL-2 melanoma it was 29.8 µM; in the assay on U251 CNS, 17.1 µM; in the assay with SN12C renal, 35.6 µM. Besides, the TGI in the assay with OVCAR-3 ovarian is 40.1 µM; in the assay on SR leukemia, 34.8 µM; with MCF7 breast, 30.6 µM; with TK-10 renal, above 91.8 µM; in the assay with BT-549 breast, 99.9 µM; with SW-620 colon it was above 100 µM. Also, the TGI is 49.2 µM with RXF 393 renal, 87.1 µM with SK-MEL-2 melanoma, above 71.7 µM with U251 CNS and above 100 µM in the assay with SN12C renal.

For `Cc1ccc([N+](=O)[O-])cc1NC(=O)Nc1cccc(F)c1`, the GI50 is 3.25 µM with OVCAR-3 ovarian; 5.63 µM in the assay with SR leukemia; 3.63 µM with MCF7 breast; 4.19 µM in the assay on TK-10 renal; 45.1 µM in the assay with BT-549 breast; 4.66 µM with SW-620 colon. Moreover, the GI50 is 18.4 µM in the assay with RXF 393 renal, 8.82 µM in the assay on SK-MEL-2 melanoma, 3.82 µM in the assay with U251 CNS and 5.18 µM in the assay on SN12C renal. Moreover, the TGI with OVCAR-3 ovarian is 11.7 µM; in the assay on SR leukemia, 64.6 µM; in the assay with MCF7 breast, above 100 µM; in the assay with TK-10 renal, 17.7 µM; with BT-549 breast, above 100 µM; with SW-620 colon, above 100 µM. In addition, the TGI in the assay with RXF 393 renal is 61.2 µM; in the assay with SK-MEL-2 melanoma, 89.2 µM; with U251 CNS it was 18.4 µM; in the assay on SN12C renal, above 100 µM.
